Data reported in patent publication US6534035B1, “Methods of inhibiting clot formation” (President and Fellows of Harvard College, priority 1998, dated 2003).
“Also recorded” adds a separate entry of the source. Peptide text beside a SMILES is read from it. * marks the point of attachment. Biotin = O=C1N[C@H]2[C@H](CS[C@H]2CCCCC(=O)*)N1

Legend:
pulmonary emboli = assay: Crosslinking of α2AP13-24 into pulmonary emboli in vivo; design: species or system ferret; conditions: 0.5 mM dose of biotinylated peptide after embolization, 4 hours
Procedure: To examine whether FXIIIa which formed thrombi in vivo retained the ability to crosslink substrates, the ferret pulmonary embolism model was used. Clots were formed by combining 45 μl of pooled human fresh frozen plasma with ^125I-labeled fibrinogen (˜100,000 cpm/clot), 2.5 μl of 0.4 M CaCl2, and 2.5 μl thrombin (1000 U/ml). The clots were incubated at 37° C. for 20 minutes, washed three times in saline, and 6 were embolized into the lungs of each animal. Three experimental groups were examined with 2 animals in each group. One group received normal clots and a solution of α2AP13-24 (SEQ ID NO:2) calculated to produce a final peptide concentration of 0.5 mM. Another group also received the same peptide concentration; prior to embolization, the clots in this group were washed in iodoacetamide (10 mg/ml) and EDTA (10 mM final) to inhibit clot associated FXIIIa. The third group received the blood clots but no peptide infusion afterward. Four hours after embolization, the ferrets were sacrificed by CO2 inhalation. The heart, lungs, and great vessels were removed and gamma-counted to locate the pulmonary emboli.
Lung tissue containing pulmonary emboli was localized with a Geiger counter, excised and weighed. […]

FXIIIa = target: T1, FXIIIa (Homo sapiens, UniProt P00488); assay: FXIIIa catalytic half-life: crosslinking of substrates into fibrin clots of various ages; assay type: biochemical; conditions: substrate added to 2 or 4 hour old clots
T1 construct: purchased American Diagnostica
T1 sequence (P00488 39-732 limits assumed): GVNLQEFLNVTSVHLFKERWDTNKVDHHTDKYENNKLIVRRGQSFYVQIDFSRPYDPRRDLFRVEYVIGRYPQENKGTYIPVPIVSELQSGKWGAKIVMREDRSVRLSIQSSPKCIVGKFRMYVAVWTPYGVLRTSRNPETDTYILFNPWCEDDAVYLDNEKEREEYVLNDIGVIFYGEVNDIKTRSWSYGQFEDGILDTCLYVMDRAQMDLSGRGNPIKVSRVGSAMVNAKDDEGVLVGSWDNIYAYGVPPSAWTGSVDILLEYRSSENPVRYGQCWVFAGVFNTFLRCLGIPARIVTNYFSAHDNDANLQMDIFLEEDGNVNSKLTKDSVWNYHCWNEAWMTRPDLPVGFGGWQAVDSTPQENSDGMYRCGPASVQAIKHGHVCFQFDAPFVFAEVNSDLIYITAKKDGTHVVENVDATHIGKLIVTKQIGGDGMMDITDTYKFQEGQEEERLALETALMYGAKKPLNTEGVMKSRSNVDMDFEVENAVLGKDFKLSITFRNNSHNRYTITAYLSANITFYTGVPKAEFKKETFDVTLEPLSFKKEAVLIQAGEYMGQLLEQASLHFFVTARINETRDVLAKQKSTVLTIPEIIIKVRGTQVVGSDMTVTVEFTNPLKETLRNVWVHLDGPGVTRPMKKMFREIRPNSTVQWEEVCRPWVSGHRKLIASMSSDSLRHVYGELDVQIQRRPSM
Procedure: Experiments were performed to determine how long FXIIIa in clots could crosslink various substrates such as human ^125I -α2AP, α2AP13-24 (SEQ ID NO:2), and 5-(biotinamido)pentylamine, into fibrin. In a typical experiment, clots were prepared (50 μl final volume) in duplicate by combining fibrinogen (2 mg/ml final), CaCl2 (2 mM final), buffer (Tris-buffered saline pH 7.4) and thrombin (1 U/ml) and incubating at 37° C. Synchronous with the addition of thrombin, or up to 240 minutes afterwards, the FXIIIa substrates 5-(biotinamido)pentylamine (0.5 mM final), ^125I -α2AP (70 μg/ml final), and α2AP13-24 (0 to 1 mM final) were mixed and added to the clot. In one set of control samples, FXIIIa was inhibited with iodoacetamide (10 mg/ml) prior to the addition of substrate; to another set, no substrate was added. After 2 hours of incubation at 37° C., iodoacetamide (10 mg/ml) was added to stop the reaction. The tubes were then centrifuged at 14,000 rpm for 2 minutes, washed and compressed in 1 ml saline to remove unbound proteins, and centrifuged again at 14,000 rpm for 2 minutes. After removal of the supernatant, the clots were solubilized in 100 μL of 9M urea, pH 9.0 at 37° C. for 60 minutes. Then 100 μl of SDS reducing sample buffer was added and the clots were placed at 85° C. for 30 minutes until fully solubilized. The samples were examined by SDS-PAGE. Crosslinked ^125I-α2AP was detected and quantitated by phosphorimaging. Samples containing crosslinked α2AP13-24 and pentylamine substrates were electroblotted to PVDF membranes and detected by ^125I-streptavidin followed by phosphorimaging or by streptavidin-peroxidase followed by the developing agents 5-bromo-4-chloro-3-indolyl phosphate-nitro blue tetrazolium using methods known in the art. In experiments examining the effect of specific amino acid residues on the crosslinking of the α2AP13-24 peptide (SEQ ID NO:2) to fibrin, crosslinking was detected by immunoblotting with an anti-peptide antibody directed against this epitope followed by ^125I-protein A and phosphorimaging. […]

CC(C)C[C@H](NC(=O)[C@H](CC(C)C)NC(=O)[C@@H](NC(=O)[C@H](CC(C)C)NC(=O)[C@@H]1CCCN1C(=O)[C@H](CO)NC(=O)[C@@H](NC(=O)[C@H](CCC(N)=O)NC(=O)[C@H](CCC(=O)O)NC(=O)[C@H](CCC(N)=O)NC(=O)[C@@H](N)CC(N)=O)C(C)C)[C@@H](C)O)C(=O)N[C@@H](CCCCNC(=O)CCCC[C@@H]1SC[C@@H]2NC(=O)N[C@@H]21)C(=O)O [α2AP13-24, NQEQVSPLTLLK] (H-NQEQVSPLTLLK(Biotin)-OH) was tested, and the “incorporation of peptide into existing pulmonary emboli” value (pulmonary emboli) was “specific staining was detected in the thrombus; also recorded: covalently incorporated” and the “residual FXIIIa crosslinking of substrate” value (FXIIIa) was “little residual FXIIIa crosslinking”.
